We go through ten molecules from US8268818B2, “Inhibitors of C-MET and uses thereof” (Vertex Pharmaceuticals Incorporated, priority 2006, dated 2012).

Test [1] concerns the target T1, PI3Kγ (Homo sapiens, UniProt P48736). The test can be described thus: PI3K inhibition assay, Protocol A (33P incorporation, hydrophobic membrane filter plate). It is filed as biochemical. Particulars: 40 μM ATP, 65 μM PI(4,5)P2 diC8, 75 nM PI3Kγ, average if more than one result, read-out: PI3Kγ enzyme inhibition Ki. As for the experimental part:
Compounds were screened for their ability to inhibit PI3Kγ using one of the assays below. To each well of a 96 well polystyrene plate [Corning, Costar Item No. 3696], was added 1.5 μl of a compound of the invention (at various concentrations) along with 28.5 W of kinase buffer [50 mM HEPES (pH 7.4), 5 mM DTT, 5 mM MgCl2 and 50 mM NaCl] containing 137 μM phosphatidylinositol(4,5) bisphosphate diC8 [PI(4,5)P2; Echelon Biosciences, Cat. No. P-4508] and 158 nM PI3Ky. After mixing, 30 μl of kinase buffer containing 80 μM ATP was added to start the reaction. Final substrate concentrations in the assay were 50 mM HEPES (pH 7.4), 5 mM DTT, 5 mM MgCl2, 50 mM NaCl, 40 μM ATP (200 μCi/μmole ATP), 65 μM PI(4,5)P2 and 75 nM PI3Kγ. After 20 minutes at room temperature (25° C.), the reaction was stopped with 30 μl of kinase buffer containing 150 mM EDTA and 1.5 M ammonium sulfate. Each well of a 96 well hydrophobic membrane filter plate [Millipore, 0.45 μm hydrophobic membrane, Cat. No. […]] was washed with 100 μL wash buffer [50 mM HEPES (pH 7.4), 5 mM DTT, 5 mM MgCl2, 50 mM NaCl, 5 mM EDTA and 0.5 M ammonium sulfate]. 60 μL of the stopped assay was transferred to each well of the filter plate and soaked for 30 minutes. […] The filter plate was allowed to stand overnight prior to determining ^33P incorporation on a Perkin-Elmer Microbeta TriluxTM liquid scintillation counter and luminescence counter. […]

The target of test [2] is T1, PI3Kγ. The test can be described thus: PI3K inhibition assay, Protocol B (33P-ATP, glass fiber filter plate). It is filed as biochemical. Particulars: Protocol B; 100 μM ATP, 46 μM PI(4,5)P2 diC16, 16.6 nM PI3Kγ; average if more than one result; read-out: PI3Kγ enzyme inhibition Ki. How it is done:
Compounds were screened for their ability to inhibit PI3Kγ using one of the assays below.
To each well of a 96 well polystyrene plate [Corning Costar Item No. 3795], 61 μL of Reaction Mix [55 mM HEPES pH 7.5, 11 mM MgCl2, 27 mM NaCl, 5.5 mM DTT, 0.11 mg/mL BSA, 51 μM phosphatidylinositol(4,5)bisphosphate diC16 (PI(4,5)P2; Avanti Polar Lipids, Cat. No. 840046P) and 18 nM PI3Kγ] was added. Separately, ten 2.5-fold serial dilutions of compounds of the invention were prepared in 100% DMSO with the last two wells reserved for no inhibitor controls (enzyme+no compound and no enzyme control+no compound). 1 μL it of compound or DMSO alone was added by 12-channel hand pipet and incubated for 10 minutes at room temperature (25° C.). To initiate the reaction, 5 μl of ATP Mix [49 mM HEPES pH 7.5 and 1340 ^33P-ATP was added and allowed to incubate for 30 min. at 25° C. Final concentrations of the reaction were 50 mM HEPES 7.5, 10 mM MgCl2, 25 mM NaCl, 5 mM DTT, 0.1 mg/mL BSA, 46 μM PI(4,5)P2, 16.6 nM PI3Kγ, and 100 μM ATP. Final inhibitor concentrations ranged from 10 μM to 1 nM.
After incubation, 60 μL of the reaction was quenched by transferring to 504 of 20% TCA/Water in each well of a 96 well glass fiber filter plate [Millipore Cat. No. MAFBN0B50]. The plate was dried by vacuum and then washed five times in a Bio-Tek Instruments ELX-405 Auto Plate Washer with 150 μL of 5% TCA/Water. 50 μL of scintillation fluid was added to each well and the plate was read immediately on a Perkin-Elmer TopCount™ NXT liquid scintillation counter.
Inhibition data was background subtracted (no enzyme control+no inhibitor control) and fit to the competitive tight binding Ki equation described by Morrison and Stone. [J. F. Morrison and S. R. Stone, Comments Mol. Cell. Biophys. 2 (1985) 347-368].

T1 sequence (P48736 whole entry, species assumed): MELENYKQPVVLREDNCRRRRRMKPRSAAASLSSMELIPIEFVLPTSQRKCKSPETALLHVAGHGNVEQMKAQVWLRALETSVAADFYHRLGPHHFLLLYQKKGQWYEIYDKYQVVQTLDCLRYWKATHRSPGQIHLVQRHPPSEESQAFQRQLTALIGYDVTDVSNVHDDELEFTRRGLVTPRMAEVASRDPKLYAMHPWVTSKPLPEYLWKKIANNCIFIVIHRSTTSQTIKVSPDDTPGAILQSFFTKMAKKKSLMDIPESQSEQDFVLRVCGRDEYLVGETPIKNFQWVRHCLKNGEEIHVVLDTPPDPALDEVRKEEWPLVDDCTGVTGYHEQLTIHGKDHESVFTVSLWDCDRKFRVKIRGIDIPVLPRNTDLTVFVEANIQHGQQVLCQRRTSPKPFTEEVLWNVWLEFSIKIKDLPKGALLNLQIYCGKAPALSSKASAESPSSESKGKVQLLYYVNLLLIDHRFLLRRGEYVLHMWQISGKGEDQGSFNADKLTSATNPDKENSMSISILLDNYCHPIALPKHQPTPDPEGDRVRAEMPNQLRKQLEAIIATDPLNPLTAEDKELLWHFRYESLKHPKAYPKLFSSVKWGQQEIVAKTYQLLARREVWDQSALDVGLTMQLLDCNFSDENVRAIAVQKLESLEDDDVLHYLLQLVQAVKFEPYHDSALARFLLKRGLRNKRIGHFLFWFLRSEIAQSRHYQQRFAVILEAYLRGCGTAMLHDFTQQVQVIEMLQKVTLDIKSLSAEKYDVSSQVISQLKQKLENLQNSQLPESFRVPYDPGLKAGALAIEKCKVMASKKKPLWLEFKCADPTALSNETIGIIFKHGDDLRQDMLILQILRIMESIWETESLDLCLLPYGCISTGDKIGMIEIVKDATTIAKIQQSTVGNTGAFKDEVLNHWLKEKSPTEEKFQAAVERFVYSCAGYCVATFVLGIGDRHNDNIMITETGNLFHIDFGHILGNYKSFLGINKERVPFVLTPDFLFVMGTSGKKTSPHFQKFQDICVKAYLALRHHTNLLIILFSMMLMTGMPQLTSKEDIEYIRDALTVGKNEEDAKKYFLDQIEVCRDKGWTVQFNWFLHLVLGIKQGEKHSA

On to `CCOC(=O)c1ccc(-c2sc(NC(=O)C3CC3)nc2C)o1` [Compound 1, Ethyl 5-(2-(cyclopropanecarboxamido)-4-methylthiazol-5-yl)furan-2-carboxylate], for which the inhibition constant (Ki) (in general, a measure of affinity in units of concentration, obtained from inhibition or displacement) in test [1] lay within 1 to 5 µM. As for `CC[C@@H](NS(=O)(=O)c1ccc(-c2sc(NC(C)=O)nc2C)o1)c1ccccc1` [Compound 66], the Ki in test [2] was less than 0.1 µM.

For `CC(=O)Nc1nc(C)c(-c2ccc(S(=O)(=O)NCc3ccccc3C)o2)s1` [Compound 67], the inhibition constant Ki in test [2] was less than 0.1 µM. `CC(=O)Nc1nc(C)c(-c2ccc(S(=O)(=O)NCC(F)(F)F)o2)s1` [Compound 68]: in test [2], the Ki is less than 0.1 µM. On to `CC(=O)Nc1nc(C)c(-c2ccc(S(=O)(=O)Nc3ccccc3F)o2)s1` [Compound 69], for which the Ki in test [2] is less than 0.1 µM. Still for that read-out and setting: for `CC(=O)Nc1nc(C)c(-c2ccc(S(=O)(=O)Nc3c(F)cccc3F)o2)s1` [Compound 70] the value was 0.1 to 1 µM. On to `COC(=O)c1nc(NC(C)=O)sc1-c1ccc(S(=O)(=O)N(C)Cc2ccccc2)o1` [Compound 71], for which, in test [2], the inhibition constant (Ki) lay within 1 to 5 µM. `COC(=O)c1nc(NC(C)=O)sc1-c1ccc(S(=O)(=O)NCc2ccccc2)o1` [Compound 72]: the inhibition constant Ki in test [2] lay within 0.1 to 1 µM.

Turning to `CC(=O)Nc1nc(C)c(-c2ccc(S(=O)(=O)N[C@@H]3c4ccccc4C[C@@H]3O)o2)s1` [Compound 73], the inhibition constant Ki in test [2] was less than 0.1 µM. Turning to `CC(=O)Nc1nc(C)c(-c2ccc(S(=O)(=O)N[C@H]3c4ccccc4C[C@H]3O)o2)s1` [Compound 74], the Ki in test [2] was less than 0.1 µM.
